Laboratory results published in US4765972A (priority 1986, dated 1988).

How the values were obtained:
[1] = system: calf brain macromolecular components; test: Control irradiation of calf brain homogenate with ^3 H-vinblastine; format: binding; settings: standard photolabelling conditions; 50 nM ^3 H-vinblastine
Protocol: The standard photolabelling mixture used contained 50 nM ^3 H-NABV (50.6 Ci/mmol), 4% dimethylsulfoxide, […] potassium phosphate buffer, pH 7.0, and 2 mg/ml of tissue homogenate or high speed pellet or supernatant fractions in a final volume of 0.05 ml in polyvinylchloride V-microtiter wells (Dynatech Labs, Inc., Alexandria, VA) in a 25° C. water bath. Photolabelling mixtures were incubated for 15 minutes at 25° C. before photolysis. Photoactivation was performed for 10-20 minutes with a UV light equipped with two 15 W self-filtering 302 nm lamps (Model xx-15, Ultra-Violet Products, Inc., San Gabriel, CA), placed 3.4 cm above the photolabelling mixture. […] In a control experiment, brain homogenate was irradiated in the presence of 50 nM ^3 H-vinblastine (10.7 Ci/mmol; Amersham Corp., Arlington Heights, IL). Photoactivated samples were immediately processed for SDS-PAGE or frozen at -70° C.
When homogenate was incubated with ^3 H-NABV in the absence of UV light for 30 minutes, no radioactivity was found in subsequent SDS-PAGE gel slices above the ambient background level, except for excess 3H-NABV which migrated near the tracking dye front. Similar results were obtained after photoactivating ^3 H-NABV in the absence of brain homogenate which was then added prior to performing SDS-PAGE and gel slice analysis.

[2] = system: P388 murine leukemic cells; test: Growth inhibition of exponentially growing P388 cells; format: cell-based; settings: Mus musculus, P388, 72 h
From the text: Thus, NABV is ideal for probing intracellular Vinca alkaloid interactions because it retains the known biochemical and pharmacological properties of this class of drugs.

[3] = system: tubulin; test: Tubulin aggregation; format: biochemical; settings: both drugs at similar concentrations
[4] = system: microtubule; test: In vitro microtubule assembly; format: biochemical; settings: both drugs at similar concentrations
[5] = system: tubulin; test: Tubulin-dependent GTP hydrolysis; format: biochemical; settings: both drugs at similar concentrations
[6] = system: MCF-7 human breast tumor cells; test: Ultrastructural alterations in MCF-7 cells; format: cell-based
[7] = system: P388 leukemic cells; test: Ultrastructural alterations in P388 cells; format: cell-based, murine

SMILES | radiolabel incorporation into calf brain macromolecular components [1] | IC50 [2] | effect on tubulin aggregation [3] | effect on in vitro microtubule assembly [4] | effect on tubulin-dependent GTP hydrolysis [5] | ultrastructural alterations (microtubular paracrystals, mitotic arrest, multinucleated cells) [6] | ultrastructural alterations (microtubular paracrystals, mitotic arrest, multinucleated cells) [7]
CC[C@]1(O)C[C@@H]2CN(CCc3c([nH]c4ccccc34)[C@@](C(=O)OC)(c3cc4c(cc3OC)N(C)[C@H]3[C@@](O)(C(=O)OC)[C@H](OC(C)=O)[C@]5(CC)C=CCN6CC[C@]43[C@@H]65)C2)C1 [^3 H-vinblastine] | no radiolabel incorporation |  |  |  |  |  | 
CCC1(O)CC2CN(CCc3c([nH]c4ccccc34)C(C(=O)OC)(c3cc4c(cc3OC)N(C)C3C(O)(C(=O)NCCNC(=O)c5ccc(N=[N+]=[N-])cc5)C(O)C5(CC)C=CCN6CCC43C65)C2)C1 (stereo not drawn) [NABV, N-(p-azidobenzoyl)-N'-beta-aminoethylvindesine] |  | 1.1 nM | induce tubulin aggregation | inhibit in vitro microtubule assembly | inhibit tubulin-dependent GTP hydrolysis | resembles those caused by vinblastine | resembles those caused by vinblastine
